Patent US8012499B2, “Anthranilamides for controlling invertebrate pests” (E.I. du Pont de Nemours and Company, priority 2005, dated 2011)

melting point	Structure (SMILES)
223 to 227 °C	CCN(CC)C(=O)C(=O)c1cc(C)cc(C)c1NC(=O)c1cc(C(F)(F)F)nn1-c1ncccc1Cl [Example 2, 1-(3-chloro-2-pyridinyl)-N-[2-[(diethylamino)oxoacetyl]-4,6-dimethylphenyl]-3-(trifluoromethyl)-1H-pyrazole-5-carboxamide]
247 °C	CNC(=O)C(=O)c1cc(Cl)cc(C)c1NC(=O)c1cc(Br)nn1-c1ncccc1Cl [Example 7, 3-bromo-N-[4-chloro-2-methyl-6-[(methylamino)oxoacetyl]phenyl]-1-(3-chloro-2-pyridinyl)-1H-pyrazole-5-carboxamide]
234 °C (dec.)	C/N=C(/C(=O)NC)c1cc(Cl)cc(C)c1NC(=O)c1cc(Br)nn1-c1ncccc1Cl [Example 6, 3-bromo-N-[4-chloro-2-methyl-6-[(1E)-2-(methylamino)-1-(methylimino)-2-oxoethyl]phenyl]-1-(3-chloro-2-pyridinyl)-1H-pyrazole-5-carboxamide]
